Results from US20050250715A1, “Remedy” (priority 2002, published 2005).

Key:
NGF = assay: Enhancing activity for NGF production in L-M cells (NGF in culture medium by enzyme immunoassay); assay type: cell-based, murine; conditions: 20 hours; for Amount of NGF Production (%): control = 100%
Experimental: (2) The enhancing activity for NGF production of the compound a was assayed. L-M cells (ATCC CCL-1.2) from murine fibroblasts were suspended in an M199 medium (manufactured by Bio Whittaker) containing 0.5% bactopeptone (manufactured by Gibco) so as to have a concentration of 1.5×10^5 cells/mL. The suspension was put in a 96 well plate in an amount of 0.1 mL each well, and the cells were aseptically cultured. After culturing the cells for 3 days, the medium was removed therefrom, and exchanged with an M199 medium containing 0.5% bovine serum albumin (manufactured by Sigma). The compound a was added thereto, and the cells were cultured for 20 hours. After the termination of the culture, the concentration of NGF in the culture medium was assayed by an enzyme immunoassay method (NGF Emax Immuno Assay System, manufactured by Promega). The experiment was carried out twice, and an average value was taken. […] The amount of NGF production of the control was 0.739 ng/mL. As to the control, the concentration in the culture medium was determined in the same manner except that the compound a was not added. It is the same as that of the following examples.

mouse = assay: Oral toxicity in mouse; assay type: in vivo; conditions: mouse (male, 6-week old), orally administered at 1000 mg per kg body weight

Compound: CC1(C)[C@@H](O[C@H]2O[C@H](C(=O)O)[C@@H](O)[C@H](O)[C@H]2O[C@@H]2O[C@H](C(=O)O)[C@@H](O)[C@H](O)[C@H]2O)CC[C@]2(C)[C@H]3C(=O)C=C4[C@@H]5C[C@@](C)(C(=O)O)CC[C@]5(C)CC[C@@]4(C)[C@]3(C)CC[C@@H]12 [Glycyrrhizin, glycyrrhizin, reference compound]
- enhancing activity for NGF production (result in words) (NGF): has enhancing activity for NGF production
- Amount of NGF Production (%) (NGF; Table 4: Concentration of Sample 0.25 mM): 113.0%
- Amount of NGF Production (%) (NGF; Table 4: Concentration of Sample 0.5 mM): 204.3%
- Amount of NGF Production (%) (NGF; Table 4: Concentration of Sample 1.0 mM): 261.0%
- toxicity (mouse): no toxicity is found

Compound: CC1(C)C[C@@H](O)[C@]2(C)CC[C@]3(C)C(=CC[C@@H]4[C@@]5(C)CC[C@H](O[C@@H]6O[C@H](C(=O)O)[C@@H](O)[C@H](O)[C@H]6O[C@@H]6O[C@H](CO)[C@H](O)[C@H](O)[C@H]6O[C@@H]6O[C@H](CO)[C@@H](O)[C@H](O)[C@H]6O)[C@@](C)(CO)[C@@H]5CC[C@]43C)[C@@H]2C1 [Compound i, 3-O-[β-D-glucopyranosyl(1→2)-β-D-galactopyranosyl-(1→2)-β-D-glucuronopyranosyl]-soyasapogenol B]
- enhancing activity for NGF production (result in words) (NGF): has enhancing activity for NGF production
- Amount of NGF Production (%) (NGF; Concentration of Sample 1.0 mM): 116.8%
- Amount of NGF Production (%) (NGF; Concentration of Sample 2 mM): 169.4%

Compound: CC1(C)CC2=C3CC[C@@H]4[C@@]5(C)CCC(O)[C@](C)(CO)[C@@H]5CC[C@@]4(C)[C@]3(C)CC[C@@]2(C)C(O)C1 (stereo partly shown) [Compound n, 13(18)-oleanene-3,22,24-triol]
- enhancing activity for NGF production (result in words) (NGF): has enhancing activity for NGF production
- Amount of NGF Production (%) (NGF; Table 3: Concentration of Sample 25 mM): 197.9%
- Amount of NGF Production (%) (NGF; Table 3: Concentration of Sample 50 mM): 522.6%

Compound: CC(=O)OC1COC(OC2C(O)COC(OC3C(O)C(C)(C)CC4C5=CCC6C7(C)CCC(OC8OC(C(=O)O)C(O)C(O)C8OC8OC(CO)C(O)C(O)C8OC8OC(CO)C(O)C(O)C8O)C(C)(CO)C7CCC6(C)C5(C)CCC43C)C2O)C(O)C1O [Compound c, 3-O-[β-D-glucopyranosyl(1→2)-β-D-galactopyranosyl-(1→2)-β-D-glucuronopyranosyl]-22-O-[4-O-acetyl-β-D-xylopyranosyl(1→3)-α-L-arabinopyranosyl]soyasapogenol A]
- enhancing activity for NGF production (result in words) (NGF): has an enhancing activity for NGF production
- Amount of NGF Production (%) (NGF; Concentration of Sample 0.5 mM): 255.1%
- Amount of NGF Production (%) (NGF; Concentration of Sample 1.0 mM): 289.2%
- Amount of NGF Production (%) (NGF; Concentration of Sample 2 mM): 323.7%

Compound: CC(=O)OC1C(OC2C(O)COC(OC3C(O)C(C)(C)CC4C5=CCC6C7(C)CCC(OC8OC(C(=O)O)C(O)C(O)C8OC8OC(CO)C(O)C(O)C8OC8OC(CO)C(O)C(O)C8O)C(C)(CO)C7CCC6(C)C5(C)CCC43C)C2O)OCC(O)C1O [Compound a, 3-O-[β-D-glucopyranosyl(1→2)-β-D-galactopyranosyl-(1→2)-β-D-glucuronopyranosyl]-22-O-[2-O-acetyl-β-D-xylopyranosyl(1→3)-α-L-arabinopyranosyl]soyasapogenol A]
- enhancing activity for NGF production (result in words) (NGF): has an enhancing activity for NGF production
- Amount of NGF Production (%) (NGF; Concentration of Sample 0.5 mM): 228.3%
- Amount of NGF Production (%) (NGF; Concentration of Sample 1.0 mM): 231.6%
- Amount of NGF Production (%) (NGF; Concentration of Sample 2 mM): 212.6%
